Measurements reported in US12150945B2, “Liver disease” (Lipocine Inc., priority 2018, dated 2024).

Columns and labels:
Type in all cases: in vivo, human
hematocrit, hemoglobin = assay: Androgenic parameters (hematocrit, hemoglobin), change from baseline to end of study, safety set, trial of Example 1
Description: (§1) Oral testosterone therapy was evaluated in a multicenter, phase 3, randomized, open-label, active controlled, parallel-group study that included a 13-week efficacy phase and a 52-week safety phase. An active arm in which subjects received T gel was included for safety evaluation only.
(§2) Subjects were randomized in a 2:1 ratio to oral testosterone undecanoate or T gel. oral testosterone undecanoate subjects started at a dose of 225 mg TU (“testosterone undecanoate”) taken twice daily (total daily dose: 450 mg TU) every 12 hours. For optimal lymphatic absorption oral testosterone undecanoate must be administered with a meal. Therefore, subjects were instructed to administer oral testosterone undecanoate after a standard meal (defined as a meal consisting of 800 to 1400 calories with approximately 20% to 35% fat content). The oral testosterone undecanoate dose was titrated at Weeks 4 and 8, if necessary, based on results of intensive 24-hour PK blood sampling obtained at Weeks 3 and 7, respectively. Oral testosterone undecanoate subjects stayed at the clinic overnight during each intensive PK blood sampling period. […] Oral testosterone undecanoate dose levels permitted during the study were 150 mg BID, 225 mg BID, and 300 mg BID. Data collected during an intensive 24-hour PK sampling overnight stay at Week 13 were used for efficacy analysis; dose was not adjusted at this visit. Additional outpatient visits were conducted at Weeks 26, 39, and 52 during which single blood draws were performed 3 to 6 hours post morning dose. Dose was not adjusted during these visits.
(§3) T gel (ANDROGEL®) (testosterone gel for topical use) 1.62%, AbbVie, Chicago, Illinois, US) was supplied in non-aerosol, metered dose pumps that deliver 20.25 mg T per complete pump actuation. T gel was dosed according to product labeling. Subjects receiving T gel completed outpatient visits at Weeks 2 and 4 with single blood draws to determine titration and at Weeks 3 and 5 for dose changes, if necessary. They also completed an outpatient visit at Week 7 for safety assessments and at Weeks 13, 26, 39 and 52 during which single blood samples were obtained 3 to 6 hours after the morning dose. Dose was not adjusted during these visits. Overnight clinic stays were not required for T gel subjects.
(§4) Safety endpoints included adverse events (AEs), physical examination findings, vital signs, electrocardiograms (ECGs), and clinical laboratory tests. AEs were classified using the Medical Dictionary for Regulatory Activities (Version 16.1). Safety endpoints were summarized using descriptive statistics. Lab parameters were evaluated using two sample t-tests comparing change from baseline to end of study (EOS) across oral testosterone undecanoate and T gel subjects with p-values <0.05 considered statistically significant.

[1] = Serum DHT, DHT/T ratio, E2 and calculated free T, hormone assessment in trial of Example 1; settings: for ratio of DHT/T based on Cavg0-24 h / ratio of DHT/T based on Cmax: normal range 0.05 to 0.33
Description: as §2
Serum levels of T, TU, dihydrotestosterone (DHT), dihydrotestosterone undecanoate (DHTU), and estradiol (E2) were evaluated in oral testosterone undecanoate treated subjects. […] Sex hormone binding globulin (SHBG) was evaluated in data from all subjects. Serum T concentrations at screening were measured using chemiluminescence immunoassay kits. Hormone assays for pharmacokinetic assessment were analyzed at PPD Bioanalytical Laboratory in Richmond, Virginia Serum samples were analyzed for T, DHT, TU, DHTU, and E2 using a validated liquid chromatography-tandem mass spectrometry (LC-MS/MS) assay.

[2] = test system: ALT, GGT, BUN, total cholesterol, LDL-C, triglyceride; assay: Liver Fat Study: normalization of labs (ALT, GGT, BUN, total cholesterol, LDL-C, triglyceride) at end of study (Example 6)
Description: This example is part of an ongoing Liver Fat Study which is an open-label, multi-center, single arm study evaluating LPCN 1144 treatment (e.g., androgen therapy, testosterone therapy, oral testosterone ester, or 225 mg testosterone undecanoate orally) in a cohort of 36 hypogonadal males (NCT03868059). Subjects with at least 10% baseline liver fat were evaluated which is indicative of subjects with NAFLD with the potential to have NASH. Interim results of seven of the nine subjects in the Liver Fat Study with baseline liver fat of at least 10% are presented as two subjects were unable to schedule an eight-week MRI-PDFF visit. Baseline mean liver fat of these seven subjects was 21.0%.
An MRI-PDFF study of 36 male hypogonadal subjects (having 2 morning testosterone levels of 300 ng/dL or less) was performed as part of an ongoing trial. Basic baseline labs including liver function tests (e.g., AST & ALT) and serum triglycerides were collected and analyzed. It was found by non-linear regression, that BMI (ALT, AST, serum Triglyceride) was associated with liver fat (P<0.006). It was found by non-linear regression, that serum triglyceride levels (obesity, hypertension, type 2 diabetes) were associated with liver fat (P<0.006).

[3] = test system: Lipoprotein-associated phospholipase A2; assay: Lipoprotein-associated phospholipase A2, change from baseline to end of study, trial of Example 1
Description: as §1, §2, §3, §4

lipids = assay: Lipid parameters (HDL, LDL, total cholesterol, triglycerides, non-HDL cholesterol), change from baseline to end of study, trial of Example 1
Description: as §1, §2, §3, §4

[4] = Safety Set, baseline to end of study
[5] = 4th quartile patients based on lab parameter level, 1 Year Oral TU Study

CCCCCCCCCCC(=O)O[C@H]1CC[C@H]2[C@@H]3CCC4=CC(=O)CC[C@]4(C)[C@H]3CC[C@]12C [oral testosterone undecanoate, testosterone undecanoate]
Elevated hematocrit (>54%), number of subjects (hematocrit, hemoglobin; 52-week safety phase): 8 subjects
subjects withdrawn for elevated hematocrit (>54%) (hematocrit, hemoglobin; 52-week safety phase): 1.4%
Hematocrit, mean (SD) change from baseline to end of study (hematocrit, hemoglobin; Safety Set, N = 314, baseline to end of study): 2.54 (3.41) %
APTT, mean (SD) change from baseline to end of study (hematocrit, hemoglobin; [4]): 0.61 (4.07)
Hemoglobin, mean (SD) change from baseline to end of study (hematocrit, hemoglobin; [4]): 7.2 (10.65) g/L
PSA, mean (SD) change from baseline to end of study (hematocrit, hemoglobin; [4]): 0.27 (0.97) mcg/L
Platelets, mean (SD) change from baseline to end of study (hematocrit, hemoglobin; [4]): 8.5 (31.34) 10^9/L
Prothrombin time, mean (SD) change from baseline to end of study (hematocrit, hemoglobin; [4]): 0.31 (1.14) sec
hemoglobin, pretreatment to EOS (hematocrit, hemoglobin; in vivo): Small and similar increases
ratio of DHT/T based on Cavg0-24 h ([1]; Week 3): 0.24
ratio of DHT/T based on Cmax ([1]; Week 3): 0.16
ratio of DHT/T based on Cavg0-24 h ([1]; Week 7): 0.26
ratio of DHT/T based on Cmax ([1]; Week 7): 0.18
ratio of DHT/T based on Cavg0-24 h ([1]; Week 13): 0.26
ratio of DHT/T based on Cmax ([1]; Week 13): 0.18
Calculated free T levels ([1]; normal values 9 to 30 ng/dL): consistently within normal values
normalization rate for LDL-C [2]: 50%
normalization rate for total cholesterol [2]: 29%
normalization rate for triglyceride [2]: 21%
subjects with BUN normalization [2]: 60%
subjects with above normal GGT levels who ended the study with normal GGT levels [2]: 0%
subjects with above normal ALT levels who ended the study with normal ALT levels ([2]; mean baseline ALT 48.7): 100%
Lp-PLA2, mean change from baseline [3, 5]: -47.8 ng/mL
Lp-PLA2, mean change from baseline, % [3, 5]: −17.1%
Lp-PLA2, mean (SD) change from baseline to end of study [3, 4]: −9.6 (42.07) ng/mL
Lipoprotein-associated phospholipase A2, baseline to EOS ([3]; difference in change between groups not significant): decreased significantly
LDL-C, mean change from baseline (lipids; [5]): -10.2 mg/dL
LDL-C, mean change from baseline, % (lipids; [5]): −6.1%
Non-HDL-C, mean change from baseline (lipids; [5]): -18.2 mg/dL
Non-HDL-C, mean change from baseline, % (lipids; [5]): −8.7%
Total Cholesterol, mean change from baseline (lipids; [5]): -20.2 mg/dL
Total Cholesterol, mean change from baseline, % (lipids; [5]): −7.9%
Triglycerides, mean change from baseline (lipids; [5]): -85.1 mg/dL
Triglycerides, mean change from baseline, % (lipids; [5]): −19.0%
Cholesterol, mean (SD) change from baseline to end of study (lipids; [4]): -0.24 (0.82) mmol/L
HDL cholesterol, mean (SD) change from baseline to end of study (lipids; [4]): −0.14 (0.22) mmol/L
LDL cholesterol, mean (SD) change from baseline to end of study (lipids; [4]): −0.05 (0.66) mmol/L
Triglyceride, mean (SD) change from baseline to end of study (lipids; [4]): −0.18 (1.14) mmol/L
Serum HDL cholesterol decrease at EOS (lipids; compared with T gel): significantly larger decrease
HDL cholesterol: subjects with a shift from normal at baseline to low at EOS (lipids; in vivo): 19.0%
